ChEMBL document CHEMBL5244260, “Aldose reductase and protein tyrosine phosphatase 1B inhibitors as a promising therapeutic approach for diabetes mellitus” (Eur J Med Chem, 2020)

What was measured:
[1] = target: Aldo-keto reductase family 1 member B1 (Homo sapiens, UniProt P15121); assay: Inhibition of human ALR2 assessed as inhibition constant
[2] = target: T1, Tyrosine-protein phosphatase non-receptor type 1 (Homo sapiens, UniProt P18031); assay: Inhibition of PTP1B (1 to 321 residues) (unknown origin) expressed in Escherichia coli BL21 assessed as inhibition constant using pNPP as substrate incubated for 60 min by Michaelis-Menten analysis
T1 sequence (P18031 whole entry): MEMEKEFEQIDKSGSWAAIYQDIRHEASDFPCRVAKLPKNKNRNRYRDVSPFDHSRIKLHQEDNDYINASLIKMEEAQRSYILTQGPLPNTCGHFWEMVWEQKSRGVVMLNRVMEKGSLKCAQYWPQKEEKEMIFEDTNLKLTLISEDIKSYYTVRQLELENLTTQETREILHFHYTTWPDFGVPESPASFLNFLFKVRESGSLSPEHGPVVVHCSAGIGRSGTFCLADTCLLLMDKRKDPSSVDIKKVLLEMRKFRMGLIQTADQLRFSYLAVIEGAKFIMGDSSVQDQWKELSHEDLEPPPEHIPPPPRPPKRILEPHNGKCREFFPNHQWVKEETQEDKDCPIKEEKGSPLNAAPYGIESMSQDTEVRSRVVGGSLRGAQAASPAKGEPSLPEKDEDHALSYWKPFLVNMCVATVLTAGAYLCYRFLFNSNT

[3] = Inhibition of ALR2 in Wistar rat lens using D,L-glyceraldehyde as substrate preincubated for 10 mins in presence of NADPH followed by substrate addition and measured after 5 mins by spectrophotometric assay; type: tissue-based
[4] = target: T2, Aldo-keto reductase family 1 member B1 (Rattus norvegicus, UniProt P07943); assay: Inhibition of ALR in Fischer-344 rat lens using D,L-glyceraldehyde as substrate in presence of NADPH measured after 3 mins by spectrophotometric assay; type: tissue-based
[5] = Inhibition of ALR2 in Wistar rat using D,L-glyceraldehyde as substrate preincubated for 10 mins in presence of NADPH followed by substrate addition and measured after 4 mins by spectrophotometric assay
[6] = target: T2, Aldo-keto reductase family 1 member B1; assay: Inhibition of recombinant Aldose reductase in rat lens using D,L-glyceraldehyde as substrate in presence of NADPH measured after 4 mins by spectrophotometric assay; type: tissue-based
[7] = target: T1, Tyrosine-protein phosphatase non-receptor type 1; assay: Inhibition of human PTP1B using pNPP as substrate incubated for 30 min
[8] = target: T1, Tyrosine-protein phosphatase non-receptor type 1; assay: Inhibition of human PTP1B (1 to 298 residues) expressed in Escherichia coli using FDP as substrate by microplate reader
Homo sapiens [9] = species on record: Homo sapiens; assay: Selectivity ratio of IC50 for human PTP1B (1 to 298 residues) expressed in Escherichia coli BL21 (DE3) to IC50 for TCPTP (unknown origin)
[10] = target: Aldo-keto reductase family 1 member B1 (Sus scrofa, UniProt P80276); assay: Inhibition of ALR2 in pig lens using D,L-glyceraldehyde as substrate preincubated for 4 mins in presence of NADPH followed by substrate addition and measured after 4 mins by spectrophotometric assay; type: tissue-based
[11] = target: T1, Tyrosine-protein phosphatase non-receptor type 1; assay: Inhibition of human recombinant PTP1B (1 to 321 residues) expressed in Escherichia coli BL21 assessed as inhibition constant using pNPP as substrate
[12] = Inhibition of ALR2 in rat lens using D,L-glyceraldehyde as substrate preincubated for 10 mins in presence of NADPH followed by substrate addition and measured after 20 mins by spectrophotometric assay; type: tissue-based
[13] = target: Receptor-type tyrosine-protein phosphatase alpha (Homo sapiens, UniProt P18433); assay: Inhibition of PTPalpha (unknown origin)
Receptor-type tyrosine-protein phosphatase alpha, sequence (P18433 whole entry): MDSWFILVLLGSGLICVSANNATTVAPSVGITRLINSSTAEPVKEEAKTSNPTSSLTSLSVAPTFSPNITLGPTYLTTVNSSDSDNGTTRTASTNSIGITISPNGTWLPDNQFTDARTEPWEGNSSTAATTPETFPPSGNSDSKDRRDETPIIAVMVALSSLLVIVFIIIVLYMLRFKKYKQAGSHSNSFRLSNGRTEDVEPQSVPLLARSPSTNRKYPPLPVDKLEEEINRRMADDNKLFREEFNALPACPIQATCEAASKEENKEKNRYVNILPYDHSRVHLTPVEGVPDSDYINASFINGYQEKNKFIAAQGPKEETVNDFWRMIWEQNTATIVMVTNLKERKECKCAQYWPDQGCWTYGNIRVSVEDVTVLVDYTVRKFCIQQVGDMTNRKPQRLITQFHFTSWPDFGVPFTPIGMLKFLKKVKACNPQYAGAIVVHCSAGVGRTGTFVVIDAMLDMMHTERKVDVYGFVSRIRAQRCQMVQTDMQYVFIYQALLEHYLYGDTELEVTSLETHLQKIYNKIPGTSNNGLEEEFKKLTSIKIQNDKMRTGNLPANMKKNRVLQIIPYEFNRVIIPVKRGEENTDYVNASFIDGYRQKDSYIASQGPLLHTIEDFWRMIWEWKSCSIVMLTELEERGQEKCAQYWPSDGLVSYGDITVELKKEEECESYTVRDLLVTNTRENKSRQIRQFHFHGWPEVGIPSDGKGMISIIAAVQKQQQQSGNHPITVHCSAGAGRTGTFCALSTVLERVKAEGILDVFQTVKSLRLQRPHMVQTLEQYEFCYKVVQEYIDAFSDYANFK

[14] = target: T3, Tyrosine-protein phosphatase non-receptor type 7 (Homo sapiens, UniProt P35236); assay: Inhibition of HEPTP (unknown origin)
T3 sequence (P35236 whole entry): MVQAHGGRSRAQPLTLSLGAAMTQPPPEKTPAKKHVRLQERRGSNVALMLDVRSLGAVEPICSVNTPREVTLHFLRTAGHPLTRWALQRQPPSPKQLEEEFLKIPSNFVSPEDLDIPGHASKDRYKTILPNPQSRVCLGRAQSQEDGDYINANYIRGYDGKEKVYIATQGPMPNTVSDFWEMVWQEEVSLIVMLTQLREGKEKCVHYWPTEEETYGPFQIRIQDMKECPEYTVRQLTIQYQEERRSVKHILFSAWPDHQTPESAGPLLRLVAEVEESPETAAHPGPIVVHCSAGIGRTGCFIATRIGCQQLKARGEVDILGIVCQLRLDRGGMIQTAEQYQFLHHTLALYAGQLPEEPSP

Mus musculus = assay: Anti-diabetic activity in ob/ob diabetic C57BL/6J mouse assessed as decrease in glucose level at 25 mg/kg,po dosed for 4 days; type: functional; design: scale not given: the % may be the effect or the level left; settings: time 4 day
[15] = Inhibition of human recombinant ALR1 expressed in Escherichia coli by Coomassie reagent assay
[16] = target: T4, Tyrosine-protein phosphatase non-receptor type 2 (Homo sapiens, UniProt P17706); assay: Inhibition of Flag-tagged human TCPTP (1 to 296 residues) expressed in Escherichia coli BL21 using FDP as substrate
T4 sequence (P17706 whole entry): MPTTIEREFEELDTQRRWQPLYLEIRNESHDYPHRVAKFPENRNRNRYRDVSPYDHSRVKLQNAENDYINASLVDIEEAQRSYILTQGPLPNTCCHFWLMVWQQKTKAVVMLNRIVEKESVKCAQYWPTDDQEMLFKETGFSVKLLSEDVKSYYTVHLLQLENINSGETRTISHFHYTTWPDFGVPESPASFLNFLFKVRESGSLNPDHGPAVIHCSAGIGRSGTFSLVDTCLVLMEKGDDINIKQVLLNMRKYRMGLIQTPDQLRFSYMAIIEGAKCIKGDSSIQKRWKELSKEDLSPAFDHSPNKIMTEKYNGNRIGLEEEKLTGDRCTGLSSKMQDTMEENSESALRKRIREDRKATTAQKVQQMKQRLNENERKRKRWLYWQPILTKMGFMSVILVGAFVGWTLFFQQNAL

[17] = target: T1, Tyrosine-protein phosphatase non-receptor type 1; assay: Inhibition of Flag-tagged human PTP1B (1 to 298 residues) expressed in Escherichia coli BL21 using FDP as substrate
Homo sapiens [18] = species on record: Homo sapiens; assay: Selectivity ratio of Ki for human PTP1B expressed in Escherichia coli BL21 (DE3) to Ki for TCPTP (unknown origin)
Homo sapiens [19] = species on record: Homo sapiens; assay: Selectivity ratio of Ki for human PTP1B expressed in Escherichia coli BL21 (DE3) to Ki for LAR (unknown origin)
Homo sapiens [20] = species on record: Homo sapiens; assay: Selectivity ratio of Ki for human PTP1B expressed in Escherichia coli BL21 (DE3) to Ki for SHP-2 (unknown origin)
Homo sapiens [21] = species on record: Homo sapiens; assay: Selectivity ratio of Ki for human PTP1B expressed in Escherichia coli BL21 (DE3) to Ki for CD45 (unknown origin)
Homo sapiens [22] = species on record: Homo sapiens; assay: Selectivity ratio of Ki for human PTP1B expressed in Escherichia coli BL21 (DE3) to Ki for Calcineurin (unknown origin)
[23] = target: T1, Tyrosine-protein phosphatase non-receptor type 1; assay: Inhibition of human recombinant PTP1B expressed in Escherichia coli using pNPP as substrate by microplate reader assay

## N#Cc1ccc(CNC(=O)c2ccc(Cl)cc2OCC(=O)O)cc1
[1]
  Ki: 2000 nM

## O=C(O)C(=O)Nc1sc2c(c1C(=O)O)COC(COC1=NS(=O)(=O)c3ccccc31)C2 (centres undefined)
[2]
  Ki: 600 nM

## O=C(O)CC1=CN(/C=C/c2ccc(O)cc2)S(=O)(=O)c2ccccc21
[3]
  IC50: 94 nM

## O=C(O)Cn1cc(-c2nc3ccccc3s2)cc1C(=O)c1ccccc1
[4]
  IC50: 45 nM

## O=C(O)Cn1c(=O)c(Cc2ccc(Br)cc2F)nc2ccc(F)cc21
[5]
  IC50: 6.44 nM

## O=C1CC2(C(=O)N1)c1ccc(O)cc1C=Cc1cc(O)ccc12
[6]
  IC50: 3000 nM

## CCCCCCS(=O)(=O)NC(=O)c1ccc(CSCc2ccc(-c3ccccc3)cc2)cc1
[7]
  IC50: 280 nM

## COC(CC(C)C)c1ccc2ccc(CC(Cc3ccc(C(F)(F)P(=O)(O)O)cc3)(c3ccccc3)n3nnc4ccccc43)c(P(=O)(O)O)c2n1 (centres undefined)
[8]
  IC50: 5 nM
Homo sapiens [9]
  Ratio IC50: 7.2

## O=C(O)CCCCCN1N=C2c3ccsc3CCC2CC1=O (centres undefined)
[10]
  IC50: 7600 nM

## CCCCCNC(=O)[C@H](Cc1ccc(OCC(=O)O)c(C(=O)O)c1)NC(=O)[C@H](Cc1ccccc1)NC(=O)CCC(=O)O
[11]
  Ki: 250 nM

## Cc1ccc(C(=O)/C(=C/c2ccc(O)c(O)c2)C(=O)O)cc1
[12]
  IC50: 490 nM

## O=C(O)[C@H](Cc1ccccc1)Oc1ccc(-c2ccc(-c3c(Cc4ccccc4)oc4ccccc34)cc2)cc1
[13]
  IC50: 33700 nM
[14]
  IC50: 7100 nM
Mus musculus
  Activity: 27%

## O=C(O)COc1cc(F)ccc1C(=S)NCc1ccc(Br)cc1F
[15]
  IC50: 33000 nM

## Cc1noc(-c2ccc(C(C/C=C/c3ccccc3)(Cc3ccc(C(F)(F)P(=O)(O)O)cc3)n3nnc4ccccc43)cc2)n1 (centres undefined)
[16]
  IC50: 1600 nM
[17]
  IC50: 163 nM

## CC(=O)N[C@@H](Cc1ccc(N(C(=O)C(=O)O)c2ccccc2C(=O)O)c2ccccc12)C(=O)NCCCCCOc1cc2ccccc2cc1C(=O)O
Homo sapiens [18]
  Ratio Ki: 2
Homo sapiens [19]
  Ratio Ki: 36
Homo sapiens [20]
  Ratio Ki: 104
Homo sapiens [21]
  Ratio Ki: 2700
Homo sapiens [22]
  Ratio Ki: > 13000

## CC(=C\c1csc([C@@H](Cc2ccc(OCc3ccccc3)cc2)NC(=O)CC2CCCCC2)n1)/C=C(\C)C(=O)O
[23]
  IC50: 2480 nM
